Results published in ChEMBL document CHEMBL1201862, “PubChem BioAssay data set” (2004).
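96-well plates; 48 h exposure; 5 concentrations. Endpoints by linear interpolation between flanking doses. Not reached: highest tested concentration assigned. Abbreviation: GI50, concentration required for 50% inhibition of growth.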 Calls of active or inactive are those of the source. Cut-off read from the data, not from the text of the source: active = GI50 up to about 1.1 µM and inactive = higher.

Experiments:
Test in all cases: inhibition of tumour cell growth, NCI panel, 48 h
ACHN = tested on: ACHN
COLO 205 = tested on: COLO 205
EKVX = tested on: EKVX
HL-60 = tested on: HL-60
HT-29 = tested on: HT-29
IGROV-1 = tested on: IGROV-1
MDA-MB-231 = tested on: MDA-MB-231
MDA-MB-435 = tested on: MDA-MB-435
NCI-H226 = tested on: NCI-H226
NCI/ADR-RES = tested on: NCI/ADR-RES
RPMI-8226 = tested on: RPMI-8226
RXF 393 = tested on: RXF 393
SF-268 = tested on: SF-268
SR = tested on: SR
SW-620 = tested on: SW-620
T47D = tested on: T47D
TK-10 = tested on: TK-10
SNB-75 = tested on: SNB-75

Measured: GI50

COc1ccc(Nc2nc(N)c(C(=O)c3cccs3)s2)cc1
active: SR 0.682 µM
inactive: ACHN 12.2 µM | COLO 205 3.98 µM | EKVX 16.9 µM | HL-60 3.56 µM | HT-29 3.35 µM | IGROV-1 4.43 µM | MDA-MB-231 26.2 µM | MDA-MB-435 1.24 µM | NCI-H226 5.86 µM | NCI/ADR-RES 10.7 µM | RPMI-8226 5.92 µM | RXF 393 5.55 µM | SF-268 17 µM | SW-620 5.45 µM | T47D 15.8 µM | TK-10 5.08 µM

COc1cc2c(cc1OC)C1C(O)C(OC)C(Br)C3(Br)CCN(C2)C13 (stereo not drawn)
inactive: ACHN > 100 µM | COLO 205 > 100 µM | EKVX > 100 µM | HL-60 > 100 µM | HT-29 > 100 µM | IGROV-1 > 100 µM | MDA-MB-231 > 100 µM | MDA-MB-435 > 100 µM | NCI-H226 > 100 µM | NCI/ADR-RES > 100 µM | RPMI-8226 > 100 µM | RXF 393 18.5 µM | SF-268 9.04 µM | SNB-75 78.9 µM | SW-620 > 100 µM | T47D 84.1 µM | TK-10 > 100 µM

CC(=O)O[C@H]1CC[C@H]2[C@@H]3CCC4=C/C(=N/OCCN(C)C)CC[C@]4(C)[C@H]3CC[C@]12C
inactive: ACHN 13.4 µM | COLO 205 2.27 µM | EKVX 14.4 µM | HL-60 1.88 µM | HT-29 2.06 µM | IGROV-1 13.1 µM | MDA-MB-231 20.2 µM | MDA-MB-435 2.19 µM | NCI-H226 3.8 µM | NCI/ADR-RES 12.6 µM | RPMI-8226 1.2 µM | RXF 393 12 µM | SF-268 13.1 µM | SNB-75 6.68 µM | SW-620 9.51 µM | T47D 5.81 µM | TK-10 11.3 µM

COC(O)C(=O)c1c2c(cc3c1CCC3)CCCC2 (stereo not drawn)
inactive: ACHN 8.38 µM | COLO 205 6.62 µM | EKVX 16.7 µM | HL-60 1.56 µM | HT-29 2.69 µM | IGROV-1 4.12 µM | MDA-MB-231 9.64 µM | MDA-MB-435 17.4 µM | NCI-H226 16.5 µM | NCI/ADR-RES 14.7 µM | RPMI-8226 2.46 µM | SF-268 15.2 µM | SNB-75 8.17 µM | SR 4 µM | SW-620 3.44 µM | T47D 6.28 µM | TK-10 16.3 µM

COc1ccc(-c2oc3cc(OC(C)=O)cc(OC(C)=O)c3c(=O)c2OC)cc1
inactive: ACHN 17 µM | COLO 205 15.9 µM | EKVX 13.9 µM | HL-60 12.1 µM | HT-29 16.7 µM | IGROV-1 16.2 µM | MDA-MB-231 22 µM | MDA-MB-435 10.4 µM | NCI/ADR-RES 14.7 µM | RPMI-8226 12.5 µM | SF-268 15.4 µM | SR 13.5 µM | SW-620 16.1 µM | T47D 19.7 µM | TK-10 21.8 µM

C=C1C(=O)O[C@H]2C/C(C=O)=C\[C@H]3O[C@H]3/C(COC(=O)C(C)C)=C/CC12 (stereo partly drawn)
inactive: ACHN 2.32 µM | COLO 205 1.93 µM | EKVX 16.3 µM | HL-60 2.11 µM | HT-29 3.07 µM | IGROV-1 4.65 µM | MDA-MB-231 3.89 µM | MDA-MB-435 4.25 µM | NCI-H226 21.4 µM | NCI/ADR-RES 6.34 µM | RPMI-8226 2.52 µM | RXF 393 3.49 µM | SR 2.3 µM | SW-620 2.52 µM | T47D 3.54 µM | TK-10 11.8 µM

CCC(C(=O)c1ccc(OC)c(OC)c1)N(C(=O)C(F)(F)F)C(C)c1ccccc1 (stereo not drawn)
inactive: ACHN > 100 µM | COLO 205 > 100 µM | EKVX > 100 µM | HL-60 > 100 µM | HT-29 > 100 µM | IGROV-1 > 100 µM | MDA-MB-231 > 100 µM | MDA-MB-435 > 100 µM | NCI/ADR-RES > 100 µM | RPMI-8226 > 100 µM | SF-268 83.9 µM | SR > 100 µM | SW-620 > 100 µM | T47D 91 µM | TK-10 > 100 µM

C=C1CC(C)(COc2ccc3ccc(=O)oc3c2)OC1=O (stereo not drawn)
inactive: ACHN 3.46 µM | EKVX 7.53 µM | HT-29 1.57 µM | IGROV-1 2.93 µM | MDA-MB-231 8.28 µM | MDA-MB-435 2.12 µM | NCI-H226 11.4 µM | SF-268 10.9 µM | SNB-75 9.57 µM | T47D 3.66 µM | TK-10 1.58 µM
active: COLO 205 0.982 µM | HL-60 0.256 µM | NCI/ADR-RES 1.04 µM | RPMI-8226 0.757 µM | SR 1.08 µM | SW-620 0.822 µM

COc1ccc2nc3c([N+](=O)[O-])ccc4c3c(c2c1)N=CN4CCCN(C)C
inactive: EKVX 1.64 µM | HL-60 2.77 µM | MDA-MB-231 1.37 µM | MDA-MB-435 2.54 µM | NCI-H226 7.18 µM | NCI/ADR-RES 2.32 µM | SF-268 2.77 µM | SNB-75 2.67 µM | T47D 11.5 µM | TK-10 1.45 µM
active: ACHN 0.743 µM | COLO 205 0.855 µM | HT-29 0.57 µM | IGROV-1 0.855 µM | RPMI-8226 0.318 µM | SR 0.125 µM | SW-620 0.44 µM

CCOC(=O)C1C(=O)C=C(c2cc(C)ccc2O)CC1c1cccc(Cl)c1 (stereo not drawn)
inactive: ACHN 19.7 µM | COLO 205 18.5 µM | EKVX 30.1 µM | HL-60 25.8 µM | HT-29 32 µM | IGROV-1 13.6 µM | MDA-MB-231 23.9 µM | MDA-MB-435 2.78 µM | NCI-H226 24.5 µM | NCI/ADR-RES 17.5 µM | RPMI-8226 18.7 µM | RXF 393 19.3 µM | SF-268 22.3 µM | SR 5.21 µM | SW-620 29 µM | T47D 36.1 µM | TK-10 20.3 µM

Cc1ccc(S(=O)(=O)N2CCCN(S(=O)(=O)c3ccc(C)cc3)CC2)cc1
inactive: ACHN > 100 µM | COLO 205 > 100 µM | HT-29 > 100 µM | MDA-MB-231 > 100 µM | MDA-MB-435 > 100 µM | NCI-H226 > 100 µM | NCI/ADR-RES > 100 µM | RXF 393 > 100 µM | SF-268 > 100 µM | SNB-75 > 100 µM | SR > 100 µM | SW-620 > 100 µM | T47D > 100 µM | TK-10 > 100 µM

NC(CCCCCP(=O)(O)O)C(=O)O (stereo not drawn) [AP-7]
inactive: ACHN > 100 µM | COLO 205 > 100 µM | EKVX > 100 µM | HL-60 > 100 µM | HT-29 > 100 µM | IGROV-1 > 100 µM | MDA-MB-231 > 100 µM | MDA-MB-435 > 100 µM | NCI/ADR-RES > 100 µM | RPMI-8226 > 100 µM | RXF 393 > 100 µM | SF-268 > 100 µM | SNB-75 > 100 µM | SR > 100 µM | SW-620 > 100 µM | T47D 83.8 µM | TK-10 > 100 µM

O=C1CCC(NC(=O)c2ccccc2)C(=O)N1 (stereo not drawn)
inactive: ACHN > 100 µM | COLO 205 > 100 µM | EKVX > 100 µM | HT-29 > 100 µM | IGROV-1 > 100 µM | MDA-MB-231 > 100 µM | MDA-MB-435 > 100 µM | NCI-H226 > 100 µM | NCI/ADR-RES > 100 µM | RPMI-8226 > 100 µM | RXF 393 > 100 µM | SF-268 > 100 µM | SNB-75 > 100 µM | SR > 100 µM | SW-620 > 100 µM | T47D > 100 µM | TK-10 > 100 µM

O=C1CCc2ccc3c(c21)CC1(Cc2ccccc2C1)C3
inactive: ACHN 5.27 µM | COLO 205 16.2 µM | HL-60 2.11 µM | HT-29 3.71 µM | IGROV-1 13.3 µM | MDA-MB-231 4.45 µM | MDA-MB-435 5.98 µM | NCI-H226 19.1 µM | NCI/ADR-RES 5.5 µM | RPMI-8226 6.55 µM | SF-268 12.7 µM | SNB-75 14.4 µM | SR 3.58 µM | SW-620 4.47 µM | T47D 8.55 µM | TK-10 11.1 µM

CC(=O)OC(C)(C)CCC(=O)[C@](C)(O)[C@H]1[C@H](O)C[C@@]2(C)[C@@H]3CC=C4C(C)=C(OC5OC(CO)C(O)C(O)C5O)C(=O)C[C@@H]4[C@]3(C)C(=O)C[C@]12C (stereo partly drawn)
inactive: ACHN > 100 µM | COLO 205 > 100 µM | EKVX > 100 µM | HT-29 > 100 µM | IGROV-1 > 100 µM | MDA-MB-231 > 100 µM | MDA-MB-435 > 100 µM | NCI-H226 > 100 µM | NCI/ADR-RES > 100 µM | RXF 393 > 100 µM | SF-268 > 100 µM | SNB-75 > 100 µM | SR > 100 µM | SW-620 > 100 µM | T47D > 100 µM | TK-10 > 100 µM

N#Cc1c(-c2ccc(Cl)cc2)cc(-c2nc3ccccc3[nH]2)nc1N
inactive: ACHN 11.1 µM | COLO 205 4.3 µM | EKVX 11 µM | HL-60 11.2 µM | HT-29 9.16 µM | IGROV-1 2.39 µM | MDA-MB-231 12.2 µM | MDA-MB-435 5.43 µM | NCI-H226 10.8 µM | NCI/ADR-RES 15 µM | RPMI-8226 4.22 µM | SF-268 7.98 µM | SNB-75 10.8 µM | SR 4.56 µM | SW-620 15 µM | T47D 3.12 µM | TK-10 10.1 µM

COc1cc(/C=C(\C#N)c2nc3ccccc3o2)ccc1O
inactive: ACHN 19 µM | COLO 205 16.9 µM | EKVX 21.6 µM | HL-60 19.6 µM | HT-29 22.3 µM | IGROV-1 17.2 µM | MDA-MB-231 21.8 µM | MDA-MB-435 16.4 µM | NCI-H226 15.4 µM | NCI/ADR-RES 24.1 µM | RPMI-8226 21 µM | RXF 393 39.5 µM | SF-268 19.9 µM | SR 24.2 µM | T47D 13.3 µM | TK-10 24.4 µM
